According to patent US20080033020A1, “3-Pyridinylethylbenzamide Derivatives as Fungicides” (priority 2004, published 2008):

What was measured:
Peronospora parasitica = assay: Efficacy against Peronospora parasitica (comparative compound); assay type: in vivo; settings: at 330 ppm; comparative compound of WO 01/11965
Alternaria brassicae = assay: In vivo test on Alternaria brassicae (leaf spot of crucifers) on radish plants; settings: at 330 ppm; comparative compounds of WO 01/11965
Method: The active ingredient tested is prepared by potter homogenisation in a concentrated suspension type formulation at 100 g/l. This suspension is then diluted with water to obtain the desired active material concentration.
Radish plants (Pernot variety) in starter cups, sown on a 50/50 peat soil-pozzolana substrate and grown at 18-20° C., are treated at the cotyledon stage by spraying with the aqueous suspension described above.
Plants, used as controls, are treated with an aqueous solution not containing the active material.
After 24 hours, the plants are contaminated by spraying them with an aqueous suspension of Alternaria brassicae spores (40,000 spores per cm^3). The spores are collected from a 12 to 13 days-old culture.
The contaminated radish plants are incubated for 6-7 days at about 18° C., under a humid atmosphere.
Grading is carried out 6 to 7 days after the contamination, in comparison with the control plants.
Under these conditions, good (at least 50%) or total protection is observed at a dose of 330 ppm or 110 ppm with the following compounds: 1, 2, 3, 4, 5, 6, 7, 8, 9, 10 and 11.

Botrytis cinerea = assay: Effectiveness on Botrytis cinerea (comparative compounds); assay type: in vivo; settings: at 330 ppm; comparative compounds of WO 01/11965

Compound | efficacy against Peronospora parasitica (Peronospora parasitica) | effectiveness on Alternaria brassicae (Alternaria brassicae) | effectiveness on Botrytis cinerea (Botrytis cinerea)
O=C(Cc1cccs1)NCc1ncc(C(F)(F)F)cc1Cl [compound 101, N-{[3-chloro-5-(trifluoromethyl)-2-pyridinyl]methyl}-5-thienylacetamide] | no efficacy | poor efficacy | no efficacy
CCNC(=O)C(Cc1ncc(C(F)(F)F)cc1Cl)NC(=O)c1ccccc1 (stereo not drawn) [compound 304, N-{1-ethylcarbamoyl-2-[3-chloro-5-(trifluoromethyl)-2-pyridinyl]-ethyl}-benzamide] |  |  | zero effectiveness
CCNC(=O)C(Cc1ncc(C(F)(F)F)cc1Cl)NC(=O)c1ccc(Cl)cc1 (stereo not drawn) [compound 306, N-{1-ethylcarbamoyl-2-[3-chloro-5-(trifluoromethyl)-2-pyridinyl]ethyl}-4-chlorobenzamide] |  |  | zero effectiveness
CCNC(=O)C(Cc1ncc(C(F)(F)F)cc1Cl)NC(=O)c1cccc([N+](=O)[O-])c1 (stereo not drawn) [compound 307, N-{1-ethylcarbamoyl-2-[3-chloro-5-(trifluoromethyl)-2-pyridinyl]ethyl}-3-nitrobenzamide] |  | poor effectiveness | zero effectiveness
CCNC(=O)C(Cc1ncc(C(F)(F)F)cc1Cl)NC(=O)c1ccccc1Br (stereo not drawn) [compound 310, N-{1-ethylcarbamoyl-2-[3-chloro-5-(trifluoromethyl)-2-pyridinyl]ethyl}-2-bromobenzamide] |  |  | zero effectiveness
CNC(=O)C(Cc1ncc(C(F)(F)F)cc1Cl)NC(=O)c1ccccc1 (stereo not drawn) [compound 314, N-{1-methylcarbamoyl-2-[3-chloro-5-(trifluoromethyl)-2-pyridinyl]ethyl}-benzamide] |  |  | zero effectiveness
CNC(=O)C(Cc1ncc(C(F)(F)F)cc1Cl)NC(=O)c1ccc(OC)cc1 (stereo not drawn) [compound 315, N-{1-methylcarbamoyl-2-[3-chloro-5-(trifluoromethyl)-2-pyridinyl]ethyl}-4-methoxybenzamide] |  |  | zero effectiveness
CNC(=O)C(Cc1ncc(C(F)(F)F)cc1Cl)NC(=O)c1ccc(-c2ccccc2)cc1 (stereo not drawn) [compound 316, N-{1-methylcarbamoyl-2-[3-chloro-5-(trifluoromethyl)-2-pyridinyl]-ethyl}-4-phenylbenzamide] |  | poor effectiveness | zero effectiveness
